Laboratory results as given in patent US20200093929A1, “PHARMACEUTICAL COMPOSITION FOR THE PREVENTION AND TREATMENT OF MEMORY AND COGNITIVE DEFICITS RELATED TO AGEING” (IGEA PHARMA N.V., priority 2017, published 2020).
Marks after values point to notes of the source that are not given here.

Legend:
[1] = tested on: N2a (ECACC) mouse neuroblastoma cells; test: Intracellular antioxidant capacity (ACi) in cell lysates, Pholasin chemiluminescence, N2a cells; type: cell-based; conditions: 48 h, corrected for % viable cells, CTRL 2.60
Procedure: (§1) N2a (ECACC) mouse neuroblastoma cells, plated in the presence of MEM integrated with non-essential amino acids, 10% FCS, antibiotics and glutamine, were exposed for 48 h to micromolar levels of oleuropein aglycone and/or glutathione thioesters (GST), in the presence and in the absence of prefibrillar aggregates of Aβ1-42 peptides (Lambert M, et al. J. Neurochem. 2001, 79:595-605). […] In the control plates (CTRL) the cells were incubated under the same conditions in the presence of the culture medium alone. The following were then evaluated: • the state of cell viability through the MTT reduction test (Pensalfini A et al., Free
(§2) Rad Biol Med 2008, 44: 1624-1636). • the level of mTOR substrate phosphorylation of kinase p70 S6 (mTOR P) by western blot analysis and subsequent densitometry (Grossi C, et al., PLoS ONE 2013, 8: e71702) • the level of intracellular antioxidant capacity (ACi) through hydrosolublescavenger doses in the cellular lysates in chemiluminescence, using • the Pholasin photoprotein (ABEL Antioxidant Test Kit, Knight Scientific Ltd., UK) as reported in Cecchi C., et al. Neurobiol. Aging 28: 863-876, 2007.
(§3) ACi values were correct for the % of viable cells. AP=toxic prefibrillar aggregates.

mTOR = mTOR substrate phosphorylation of kinase p70 S6 (mTOR P), western blot and densitometry, N2a cells; type: cell-based, mouse; conditions: 48 h
Procedure: as §1, §2, §3

[2] = Cell viability by MTT reduction test in N2a cells, with and without Aβ1-42 prefibrillar aggregates; type: cell-based, mouse; conditions: mouse, N2a (ECACC) neuroblastoma cells; read-out: Cell viability (MTT test), % respect to controls
Procedure: as §1, §2, §3

[3] = tested on: N2a (ECACC) mouse neuroblastoma cells; test: as above; type: cell-based; conditions: for Comparison of the results among glycated oleuropein, oleuropein aglycone and hydroxytyrosol: Example 1 cell experiments; for Comparison of the results among the glutathione thioesters used (cell viability, mTOR P, ACi): micromolar levels, with and without Aβ1-42 aggregates
Procedure: as §1, §2, §3

[4] = in the presence of Aβ42 AP 3 μM (OLE 2 µM; GST 3 µM)
[5] = substance(s) alone, no Aβ42 AP added (Aβ42 AP 3 μM; OLE 2 µM; GST 3 µM)

Row | Structure (SMILES) | Comparison of the results among glycated oleuropein, oleuropein aglycone and hydroxytyrosol [3] | Comparison of the results among the glutathione thioesters used (cell viability, mTOR P, ACi) ([3]; N2a cells, 48 h) | other results
1 | C/C=C1/C(O)OC=C(C(=O)OC)[C@H]1CC(=O)OCCc1ccc(O)c(O)c1 (mixture of isomers) [OLE, oleuropein aglycone] | No significant differences |  | ACi, mmol/L GSH Equivalent [1, 4]: 1.55* mmol/L GSH Equivalent; ACi, mmol/L GSH Equivalent [1, 5]: 2.68 mmol/L GSH Equivalent; mTOR P, % respect to controls (mTOR; [4]): 69%; mTOR P, % respect to controls (mTOR; [5]): 12* %; viability at 48 h, 2 µM [2]: 98%; Cell viability (MTT test), % respect to controls ([3]; N2a cells, 48 h, in the presence of Aβ42 AP 3 μM (OLE 2 µM; GST 3 µM)): 65* %
2 | CC/C=C\C/C=C\C/C=C\C/C=C\C/C=C\C/C=C\CCC(=O)SC[C@H](NC(=O)CC[C@H](N)C(=O)O)C(=O)NCC(=O)O [S-docohexaenoyl-glutathione] |  | equivalent results | 
3 | CC/C=C\C/C=C\C/C=C\CCCCCCCC(=O)SCC(NC(=O)CCC(N)C(=O)O)C(=O)NCC(=O)O (stereo not drawn) [S-linolenoyl-glutathione] |  | equivalent results | 
4 | CCCCC/C=C\C/C=C\CCCCCCCCSC[C@H](NC(=O)CC[C@H](N)C(=O)O)C(=O)NCC(=O)O [S-linoleyl-glutathione] |  | equivalent results | 
5 | CCCCCCCC/C=C\CCCCCCCCSC[C@H](NC(=O)CC[C@H](N)C(=O)O)C(=O)NCC(=O)O [S-oleyl-glutathione] |  | equivalent results | 
6 | C/C=C1/[C@H](O[C@@H]2O[C@H](CO)[C@@H](O)[C@H](O)[C@H]2O)OC=C(C(=O)OC)[C@H]1CC(=O)OCCc1ccc(O)c(O)c1 [glycated oleuropein, oleuropein] | No significant differences |  | 
